Test results as given in BigSolDB 2.1.

O=C(O)c1ccc(C(=O)O)o1
solubility (mole fraction)
Settings	in MIBK	in acetic acid	in acetonitrile	in isobutanol	in methanol	in methyl acetate	in n-butanol	in water
313.15 K	0.000136	0.000235	6.11e-05	0.00168	0.00428	7.78e-05	0.00266	0.000203
318.15 K	0.000184	0.000272	9.15e-05	0.00198	0.00489	0.000113	0.00302	0.000225
323.15 K	0.000253	0.000331	0.000112	0.0023	0.0054	0.000164	0.00346	0.000283
328.15 K	0.000296	0.000404	0.000136	0.0027	0.0068	0.000238	0.00408	0.00037
333.15 K	0.000338	0.000478	0.000166	0.00323	0.00801	0.000285	0.00469	0.000421
338.15 K	0.000429	0.000555	0.000212	0.00372	0.00869	0.000377	0.00524	0.000465
343.15 K	0.000536	0.000717	0.000248	0.00412	0.00894	0.000464	0.00572	0.000598
348.15 K	0.000631	0.00082	0.000278	0.00482	–	0.000549	0.00663	0.000641
353.15 K	0.000666	0.000965	0.000341	0.00548	–	0.00062	0.00741	0.000781
358.15 K	0.000721	0.00115	0.000409	0.00607	–	0.000659	0.0082	0.000908
363.15 K	0.000863	0.00134	0.000487	0.00682	–	0.000721	0.00916	0.0011
